From US9062041B2 (Bayer Intellectual Property GmbH, priority 2011, dated 2015)
Where two headings read alike, the source gives them in different places.

Key:
[1] = test system: ovulated cumulus-oocyte complexes; experiment: In-vivo action on post-ovulatory in-vitro fertilization; parameters: species or system mice (strain: B6D2F1); settings: mice
Source text: 4.3 In-Vivo Action on Post-Ovulatory In-Vitro Fertilization: Substances can exert an influence on fertility by decreasing the fertilizability of oocytes or cumulus-oocyte complexes. In order to study such effects, substances can be administered in vivo and subjected to in vitro fertilization after ovulation of cumulus-oocyte complexes has taken place. The in-vitro fertilization rate, where no test substance is any longer present, allows conclusions as to the in-vivo effects of the test substances. Immature female mice (strain: B6D2F1, Charles River, Suelzfeld, age: 19-25 days) were kept in Macrolon cages in rooms with controlled illumination (12 hrs darkness: 12 hrs light), fed with a standard diet and provided with drinking water ad libitum. The mice were primed with PMSG (pregnant mare serum gonadotropin) (10 IU/animal i.p.). After 48 hours, a stimulus triggering ovulation was created in the animals by one administration of 10 IU/animal i.p. (hCG, human chorionic gonadotropin). The test substances were dissolved in benzyl benzoate/castor oil (1+4 v/v) and administered in a volume of 0.1 ml s.c. 1 hour before hCG (n=5 animals per group). Fourteen hours after hCG administration, the animals were killed. Ovulated oocytes and cumulus-oocyte complexes were obtained from the bursa ovarii and/or oviduct and subjected to in-vitro fertilization, wherein for the fertilization a sperm count of 40000 sperms/0.5 ml was used for 1 hour. Twenty-four hours after the incubation with the sperms, the number of fertilized oocytes is established and the percentage fertilization rate determined.

[2] = test system: female cynomolgus monkeys (Macaca Fascicularis); experiment: In-vivo action on fertility in non-human primates (mating study); settings: 6 months, 10 mg/kg (Example 17 once daily, Example 56 twice daily)
Method: 4.4 In-Vivo Action on Fertility in Non-Human Primates (Cynomolgus):
In order to study the effect of substances on fertility, mating studies can be performed in monkeys (Jensen et al. Contraception 81 (2010) 165-171). For this, the test substances are administered to female cynomolgus monkeys (Macaca Fascicularis) which are being kept in groups, then the animals are mated with a male animal. Matings are checked for by sperm detection in daily vaginal smears. Pregnancies resulting therefrom are identified by hormone determinations and ultrasound examinations. Through the changes in the serum oestradiol concentrations during the cycle, (rise before the midcycle LH peak), the fertile phase within a cycle of the individual animals can be determined Matings in this fertile period are described as “timed matings” (matings in the fertile phase). Apart from the absolute number of pregnancies occurring, the effect on the fertility can also be expressed as pregnancies per “timed matings”.
To test the action of EP2 receptor antagonists on fertility in monkeys, Examples 17 and 56 according to the invention were administered over 6 months, dissolved in 0.5 ml castor oil. Example 17 was administered once daily at a dosage of 10 mg/kg (n=10 animals), while Example 56 was administered twice daily at a dosage of 10 mg/kg (n=9 animals). Only the vehicle was administered to a control group (n=10 animals). In the first month of the treatment, no male animal was placed with the female animals. After this, female and male animals were kept together over 5 months, with detection of pregnancies and cycle monitoring.

cumulus-oocyte complexes = experiment: Cumulus expansion test in vitro; type: cell-based, mice (strain: B6D2F1); settings: for inhibition at 1 µM / inhibition at 0.5 µM: Mus musculus, 0.3 μM PGE2 for stimulation; for inhibition at 1 µM: read-out: % reduction at 1 μM (reduction in the cumulus expansion); for inhibition at 0.5 µM: read-out: % reduction at 0.5 μm (reduction in the cumulus expansion)
Method: 4.2. Cumulus Expansions Test In Vitro In immature female mice (strain: B6D2F1 from Charles River), at an age of 14-18 days, the folliculogenesis was induced by a single administration (intraperitoneal) of 10 IU of PMSG (pregnant mare serum gonadotropin; Sigma G-4877, Lot 68H0909). 47-50 hours after the injection, the ovaries were removed and the cumulus-oocyte complexes removed. At this stage, the cumulus complex is not yet expanded. The cumulus-oocyte complexes were now incubated for 20-24 hours with prostaglandin E2 (PGE) (0.3 μM), vehicle control (ethanol) or test substances. Medium: alpha-MEM medium with 0.1 mM IBMX, pyruvate (0.23 mM), glutamine (2 mM), pen/strep 100 IU/ml pen. and 100 μg/ml strep.), HSA (8 mg/ml) and foetal bovine serum (FBS, 10%). The cumulus expansion was then established through the subdivision into four stages (after Vanderhyden et al. Dev Biol. 1990 August; 140(2):307-317).

[3] = target: EP2 subtype of the human PGE2 receptor (Homo sapiens, UniProt P43116); experiment: cAMP antagonism test on the human EP2 receptor (HTRF cAMP detection); type: cell-based; settings: hEP2 receptor
Chain of EP2 subtype of the human PGE2 receptor (P43116 whole entry): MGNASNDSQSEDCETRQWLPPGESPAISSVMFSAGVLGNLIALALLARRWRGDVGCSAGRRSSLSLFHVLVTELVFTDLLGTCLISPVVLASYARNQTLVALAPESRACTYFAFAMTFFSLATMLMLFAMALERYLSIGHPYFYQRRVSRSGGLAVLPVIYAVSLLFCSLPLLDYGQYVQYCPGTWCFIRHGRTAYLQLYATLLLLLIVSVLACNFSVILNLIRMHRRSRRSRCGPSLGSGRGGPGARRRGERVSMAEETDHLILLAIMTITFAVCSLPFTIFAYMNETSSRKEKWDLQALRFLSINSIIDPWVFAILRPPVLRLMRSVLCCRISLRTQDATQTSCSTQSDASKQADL
Method in brief: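 Read-out is a competitive HTRF for cAMP: lysate cAMP displaces cAMP-d2 from Eu cryptate-labelled antibody, and antagonism raises the 665/620 nm ratio. Compound (0.8 nM–16.5 μM) added to EP2 cells 20 min at RT before 60 min PGE2 challenge (3× stock 1.5 nM) with IBMX, followed by 20 min lysis.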

| IC50 ([3]; read-out: Antagonism hEP2 IC50) [nM] | IC50 ([3]; read-out: IC50) [nM] | Compound | % fertilization with 1 mg/kg ([1]; 1 mg/kg s.c. 1 hour before hCG, in-vitro fertilization rate) [%] | % fertilization with 5 mg/kg ([1]; 5 mg/kg s.c. 1 hour before hCG, in-vitro fertilization rate) [%] | % fertilization with 10 mg/kg ([1]; 10 mg/kg s.c. 1 hour before hCG, in-vitro fertilization rate) [%] | influence on the fertilizability of ovulated cumulus-oocyte complexes ([1]; in-vivo administration) | % Pregnancies/"timed mating" [2] [%] | Pregnancies [2] | suppression of the cumulus expansion (cumulus-oocyte complexes; 0.5 μM, PGE2 0.3 μM) | inhibition at 1 µM (cumulus-oocyte complexes) [%] | inhibition at 0.5 µM (cumulus-oocyte complexes) [%] |
| --- | --- | --- | --- | --- | --- | --- | --- | --- | --- | --- | --- |
| 3.44 | 3.4 | COCCNC(=O)c1ccc2nn(CC3CCN(C(=O)c4ccc(Oc5ccc(C(F)(F)F)cc5)cc4)CC3)cc2c1C [Example 17, N-(2-methoxyethyl)-4-methyl-2-[(1-{4-[4-(trifluoromethyl)-phenoxy]benzoyl}-piperidin-4-yl)-methyl]-2H-indazol-5-carboxamide] | 20 ± 10 | 9 ± 1 | 8 ± 4 | dose-dependent influence | 6 | 3 | ca. 70% | 76 | 71 |
| 4.75 | – | COCCNC(=O)c1ccc2nn(CC3CCN(C(=O)c4ccc(-c5ccc(F)cc5)cc4F)CC3)cc2c1C [Example 42, 2-({1-[(3,4′-difluoro-biphenyl-4-yl)-carbonyl]piperidin-4-yl}methyl)-N-(2-methoxyethyl)-4-methyl-2H-indazol-5-carboxamide] | – | – | – | – | – | – | – | 79 | 48 |
| 17.8 | – | COCCNC(=O)c1ccc2nn(CC3CN(C(=O)c4ccc(Cl)cc4)C3)cc2c1C [Example 117, 2-{[1-(4-chlorobenzoyl)azetidin-3-yl]methyl}-N-(2-methoxyethyl)-4-methyl-2H-indazol-5-carboxamide] | – | – | – | – | – | – | – | 54 | 30 |
| 65.5 | – | Cc1c(C(=O)NCC(F)(F)F)ccc2nn(CC3CCN(C(=O)c4ccc(Oc5ccc(F)cc5)cc4)CC3)cc12 [Example 283, 2-({1-[4-(4-fluorophenoxy)benzoyl]piperidin-4-yl}methyl)-4-methyl-N-(2,2,2-trifluoroethyl)-2H-indazol-5-carboxamide] | – | – | – | – | – | – | – | 26 | 25 |
